Columns and labels:
B. longum = test: Ex-germ-free mice colonized with 8-11 strain consortia containing B. longum +/- lactulose; format: in vivo, mouse
Source text: (A) Schematic indicating timing of consortia gavage, lactulose administration (20 g/L in drinking water), and stool collection in ex-germ-free mice. […] (B) 16S metagenomics from stool samples without (left facet within each consortia) and with (right facet within each consortia) lactulose exposure is shown as relative abundance. Concentrations of acetate and taurocholic acid are shown in units of mM below each paired sample. (C) Bifidobacteria relative abundance, acetate concentration (mM), and taurocholic acid concentrations (μg/ml) were measured and compared between mice that were and were not exposed to lactulose. […] DNA was extracted using the QIAamp PowerFecal Pro DNA kit (Qiagen). Prior to extraction, samples were subjected to mechanical disruption using a bead beating method. Briefly, samples were suspended in a bead tube (Qiagen) along with lysis buffer and loaded on a bead mill homogenizer (Fisherbrand). Samples were then centrifuged, and supernatant was resuspended in a reagent that effectively removed inhibitors. DNA was then purified routinely using a spin column filter membrane and quantified using Qubit. […] Short chain fatty acids (SCFA, i.e. butyrate, acetate, propionate, and succinate) were derivatized with pentafluorobenzyl bromide (PFBBr) and analyzed via negative ion collision induced-gas chromatography-mass spectrometry ([-]CI-GC-MS, Agilent 8890) 92. Eight bile acids (BA, i.e. primary: cholic acid; conjugated primary: glycocholic acid, taurocholic acid; secondary: deoxycholic acid, lithocholic acid [LCA], isodeoxycholic acid; modified secondary: alloisolithocholic acid [alloisoLCA] and 3-oxolithocholic acid [3-oxoLCA]) were quantified (μg/mL) by negative mode liquid chromatography-electrospray ionization-quadrupole time-of-flight-MS ([-]LC-ESI-QTOF-MS, Agilent 6546). […] For germ-free studies, 6-18 week-old male and female C57BL/6 mice were used. Mice were initially obtained from The Jackson Laboratory and subsequently bred and raised in a germ-free isolator. […]

[1] = test system: VRE (vancomycin resistant Enterococcus faecium, ATCC 700221); test: VRE growth curves in B. longum conditioned media, SCFA- or lactulose-supplemented media; format: cell-based; conditions: 50 mM lactulose in media
Experimental: FIGS. 11A-11F: Bifidobacterium longum supernatant inhibits VRE growth in vitro. (A) Schematic of experimental design for VRE growth in B. longum conditioned media (CM). B. longum was grown in BHIS for 24-hours prior to collecting and filtering the supernatant. VRE growing at steady state was then diluted to a low density (OD600=0.05) prior to inoculating in various dilutions of B. longum conditioned media in fresh BHIS. (B) VRE growth curves in 100%, 50%, 12.5%, and 0% CM with the pH of the 4 concentrations of CM in BHIS shown in the right portion of this panel. […] (E) VRE was grown in minimal media containing either no additive (blue) or 50 mM lactulose, and OD600 was measured over time. (F) VRE was grown in BHIS with or without 50 mM lactulose, and OD600 was measured over time. […]
The Bifidobacteria longum strains MSK.11.12 and DFI.2.45 were previously derived from two distinct healthy donor stool samples and whole genome sequenced (BioSample ID: SAMN19731851 and SAMN22167409). […] All growth curves were obtained in anaerobic culture conditions at 37° C. on a BioTek EPOCH2 microplate reader with BioTek Gen 5 3.11 software. Growth curves were analyzed in GraphPad Prism Version 9.4.0. Lactulose concentrations in were measured using the EnzyChrom™ Lactulose Assay Kit (ELTL-100).

[2] = test system: Proteobacteria (Enterobacteriaceae); test: Fecal shotgun metagenomics of hospitalized liver disease patients stratified by lactulose exposure: Enterobacteriaceae/Proteobacteria abundance; format: in vivo, human; conditions: fecal samples from lactulose-treated patients
bacteremia = test: Bacteremia in liver disease patients paired with fecal samples, logistic regression; format: in vivo, human
Source text: FIGS. 13A-13E: Bifidobacteria expansion and associated metabolite production are associated with decreased incidence of bacteremia). (A) Flow diagram depicting number of samples and number of patients that were filtered out at each step of analysis for bacteremia. (B) Taxonomic relative abundance by shotgun metagenomics of stool samples paired to blood cultures is plotted in order of decreasing Bifidobacteria abundance from left to right. Underneath each stool sample is the clinical diagnosis associated with a given blood culture (bacteremia (red) or no bacteremia (green)). (C) Volcano plot of normalized metabolite concentrations. P-values were calculated using a two-tailed Wilcoxon rank sum test and are corrected for multiple comparisons using the Benjamini-Hochberg procedure. Values with log 2 fold-change >1 (corresponding to a 2-fold change with a p-value <0.05) were considered significant. (D and E) Quantitative levels for butyrate, propionate, lithocholic acid, and alloisolithocholic acid were compared from samples associated and not associated with SBP. Units for SCFA are mM, and units for BA derivatives are in μg/mL. Each point represents a single sample. Median and interquartile range are indicated by the horizontal line and box, respectively. […] Statistical comparisons between individual groups were analyzed using a two-tailed Wilcoxon rank sum test. […]

Enterococcus = test: Fecal shotgun metagenomics of hospitalized liver disease patients stratified by lactulose exposure: Enterococcus abundance; format: in vivo, human; conditions: for Regression estimate, association with Enterococcus abundance: Table S1, factors lactulose, PPI, stool consistency, antibiotics
[3] = fecal samples from lactulose-treated patients

OC[C@H]1O[C@@H](O[C@@H]2[C@@H](CO)OC(O)(CO)[C@H]2O)[C@H](O)[C@@H](O)[C@H]1O (mixture of isomers) [Lactulose, lactulose]
Relative abundance of B. longum (B. longum; all consortia (CON.1-3), 20 g/L lactulose in drinking water): increased
Fecal taurocholic acid concentrations (B. longum; all three consortia, 20 g/L lactulose): reduced
Fecal acetate concentrations (B. longum; consortia, 20 g/L lactulose): only modestly increased
VRE growth [1]: modestly augments
Enterobacteriaceae abundance, mean [2]: 7.9%
Enterobacteriaceae abundance, median [2]: 0.9%
Enterobacteriaceae abundance, range [2]: 0.0-98.8%
Samples with lactulose exposure among bacteremia (bacteremia; N = 19): (32%)
Samples with lactulose exposure among no bacteremia (bacteremia; N = 227): (65%)
Regression estimate, association with Enterococcus abundance (Enterococcus): 0.11
Regression estimate, association with Enterococcus abundance (Enterococcus; listed as lactulose): positively associates
Enterococcus abundance, mean (Enterococcus; [3]): 19.4%
Enterococcus abundance, median (Enterococcus; [3]): 0.9%
Enterococcus abundance, range (Enterococcus; [3]): 0.0-100%

Source: patent US20250186470A1, “Compositions and Methods Using Lactulose for Treating Disease” (THE UNIVERSITY OF CHICAGO, priority 2023, published 2025)
